Patent US20250188103A1, “HETEROCYCLIC GLP-1 AGONISTS” (Gasherbrum Bio, Inc., priority 2022, published 2025)
pEC50: −log10 of the molar value.

Biological target: T1, GLP-1 Receptor (Homo sapiens, UniProt P43220)
T1 construct: HD Biosciences / HDB (Method 3); host or cells: CHO-K1 (Methods 1, 2) or HEK293/CRE-Luc (Method 3)
Test: GLP-1R agonist cAMP stimulation assay
Type: cell-based
Details: cells stably expressing the GLP-1 Receptor (method not given)
Procedure: Activation of GLP-1 receptor is known to stimulate cyclic AMP (cAMP) production in cells which indicates primary coupling to the Gas subunit of the G protein heterotrimeric complex.
Method 1: To optimize functional activity directed toward Gas coupling, a CHO-K1 cell line developed by DiscoverX stably expressing the GLP-1 Receptor is used. Cells expressing GLP-1 receptor are plated in a 384-well microtiter plates and incubated overnight at 37° C. with 5% CO2 to allow the cells to attach and grow. Media is then aspirated from the cells and replaced with 15 μL Hanks Balanced Salt Solution (HBSS)/5 mM Hepes:0.5 mM IBMX 0.1% BSA (pH 7.4) [Stimulation Buffer]. […] previously generated compound sample stocks at 4× final concentration in Stimulation Buffer are then added to the cells and allowed to incubate at 37° C. for 30 or 60 minutes.
After incubation the assay signal is generated using a europium chelate-labeled cAMP tracer which competes with cAMP for binding sites on a cAMP-specific monoclonal antibody labeled with ULight™ dye. When antibodies are bound to the Eu-labeled cAMP tracer FRET transfer between the Eu chelate and ULight™ labeled antibodies is detected. Free cAMP produced from stimulated cells competes with the Eu-cAMP tracer for binding to the ULight™-mAb causing a decrease in the TR-FRET signal in a dose dependent manner.
The method for detection of cAMP using the Eu-chelate technology requires incubation with Eu-cAMP tracer solution+ULight™-anti-cAMP solution for one hour at room temperature. Microplates are read following signal generation with a PerkinElmer Envision instrument utilizing TR-FRET signal detection. Percentage activity is calculated using the following formula: […]
Method 2: To optimize functional activity directed toward Gas coupling, a CHO-K1 cell line developed by DiscoverX stably expressing the GLP-1 Receptor is used. Cells expressing GLP-1 receptor are plated in a 384-well microtiter plates and incubated overnight at 37° C. with 5% CO2 to allow the cells to attach and grow. Media is then aspirated from the cells and replaced with 15 μL 2:1 Hanks Balanced Salt Solution (HBSS)/10 mM Hepes: cAMP XS+Ab reagent. Five microliters (5 μL) of previously generated compound sample stocks at 4× final concentration in assay buffer are then added to the cells and allowed to incubate at 37° C. for 30 or 60 minutes.
After incubation the assay signal is generated using enzyme fragment complementation (EFC). In EFC, the enzyme B-galactosidase is split into two complementary portions (EA and ED). The fragment ED is fused to cAMP and in the assay format competes with endogenous cAMP for binding to a cAMP specific antibody. Activated B-Gal is formed when exogenous EA fragment binds to free ED-cAMP (not bound to cAMP specific antibody). Activated enzyme levels are detected through conversion of B-gal chemiluminescent substrate which generates a detectable luminescence signal and read on standard microtiter plate.
The methodology for detection of cAMP using EFC requires incubation with 20 μL of cAMP XS+ED/CL lysis cocktail for one hour followed by incubation with 20 μL cAMP XS+EA reagent for three hours at room temperature. Microplates are read following signal generation with a PerkinElmer Envision instrument utilizing chemiluminescent signal detection. Compound activity is analyzed using CBIS data analysis suite (ChemInnovation, CA). Percentage activity is calculated using the following formula: […]
Method 3: Activation of GLP-1 receptor is known to stimulate cyclic AMP (cAMP) production in cells which indicates primary coupling to the Gas subunit of the G protein heterotrimeric complex.
To optimize functional activity directed toward Gas coupling, a HEK293/CRE-Luc cell line developed by HDB stably expressing the GLP-1 Receptor was used. […]

T1 sequence (P43220 24-463): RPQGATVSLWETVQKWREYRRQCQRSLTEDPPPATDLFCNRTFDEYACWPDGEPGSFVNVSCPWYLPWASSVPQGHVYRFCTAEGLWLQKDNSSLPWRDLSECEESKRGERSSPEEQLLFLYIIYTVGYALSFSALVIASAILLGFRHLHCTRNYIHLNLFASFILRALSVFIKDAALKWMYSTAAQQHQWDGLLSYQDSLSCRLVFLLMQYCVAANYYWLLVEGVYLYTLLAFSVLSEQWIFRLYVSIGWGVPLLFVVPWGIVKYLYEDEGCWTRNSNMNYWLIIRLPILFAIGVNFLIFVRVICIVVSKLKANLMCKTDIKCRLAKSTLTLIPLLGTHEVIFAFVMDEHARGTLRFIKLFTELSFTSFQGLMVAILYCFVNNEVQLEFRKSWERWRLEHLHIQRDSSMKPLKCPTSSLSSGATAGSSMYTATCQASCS

SMILES	pEC50
CNc1cc(-n2ccn(-c3c4c(nn3-c3cc(C)c(F)c(C)c3)CCN(C(=O)c3cc5cc(C6CCOCC6)ccn5c3C3(c5noc(=O)[nH]5)CC3)[C@H]4C)c2=O)ccc1P(C)(C)=O [Compound 3]	10.15
CCP(=O)(CC)c1ccc(-n2ccn(-c3c4c(nn3-c3cc(C)c(F)c(C)c3)CCN(C(=O)c3cn5cc(C6CCOCC6)ccc5c3C3(c5noc(=O)[nH]5)CC3)[C@H]4C)c2=O)cc1NC [Compound 20, 3-(1-{2-[(4S)-3-{3-[4-(diethylphosphoryl)-3-(methylamino)phenyl]-2-oxo-2,3-dihydro-1H-imidazol-1-yl}-2-(4-fluoro-3,5-dimethylphenyl)-4-methyl-2H,4H,5H,6H,7H-pyrazolo[4,3-c]pyridine-5-carbonyl]-6-(oxan-4-yl)indolizin-1-yl}cyclopropyl)-4,5-dihydro-1,2,4-oxadiazol-5-one]	10.52
CCP(=O)(CC)c1ccc(-n2ccn(-c3c4c(nn3-c3cc(C)c(F)c(C)c3)CCN(C(=O)c3nn5cc(C6CCOCC6)cnc5c3C3(c5noc(=O)[nH]5)CC3)[C@H]4C)c2=O)cc1NC [Compound 24]	9.74
CCP(=O)(CC)c1ccc(-n2ccn(-c3c4c(nn3-c3cc(C)c(F)c(C)c3)CCN(C(=O)c3cc5cc(C6CCOCC6)cnn5c3C3(c5noc(=O)[nH]5)CC3)[C@H]4C)c2=O)cc1NC [Compound 26, 3-(1-{6-[(4S)-3-{3-[4-(diethylphosphoryl)-3-(methylamino)phenyl]-2-oxo-2,3-dihydro-1H-imidazol-1-yl}-2-(4-fluoro-3,5-dimethylphenyl)-4-methyl-2H,4H,5H,6H,7H-pyrazolo[4,3-c]pyridine-5-carbonyl]-3-(oxan-4-yl)pyrrolo[1,2-b]pyridazin-7-yl}cyclopropyl)-4,5-dihydro-1,2,4-oxadiazol-5-one]	10.85
CCP(=O)(CC)c1ccc(-n2ccn(-c3c4c(nn3-c3cc(C)c(F)c(C)c3)CCN(C(=O)c3[nH]c5cc(C6CCOCC6)ccc5c3C3(c5noc(=O)[nH]5)CC3)[C@H]4C)c2=O)cc1NC [Compound 28, 3-(1-{2-[(4S)-3-{3-[4-(diethylphosphoryl)-3-(methylamino)phenyl]-2-oxo-2,3-dihydro-1H-imidazol-1-yl}-2-(4-fluoro-3,5-dimethylphenyl)-4-methyl-2H,4H,5H,6H,7H-pyrazolo[4,3-c]pyridine-5-carbonyl]-6-(oxan-4-yl)-1H-indol-3-yl}cyclopropyl)-2,5-dihydro-1,2,4-oxadiazol-5-one]	10.48
CCP(=O)(CC)c1ccc(-n2ccn(-c3c(-c4cc(C)c(F)c(C)c4)nn4c3C(C)N(C(=O)c3sc5cc(C6CCOCC6)ccc5c3C3(c5noc(=O)[nH]5)CC3)CC4)c2=O)cc1NC (stereo not shown) [Compound 30]	9.49

Results, then the compound that gave them:

pEC50	SMILES
10.07	CNc1cc(-n2ccn(-c3c4c(nn3-c3ccc(F)c(C5CC5)c3)CCN(C(=O)c3cc5cc(C6CCOCC6)ccn5c3C3(c5noc(=O)[nH]5)CC3)[C@H]4C)c2=O)ccc1P(C)(C)=O [Compound 4]
9.96	CCP(=O)(CC)c1ccc(-n2ccn(-c3c4c(nn3-c3ccc(F)c(C5CC5)c3)CCN(C(=O)c3cc5cc(C6CCOCC6)ccn5c3C3(c5noc(=O)[nH]5)CC3)[C@H]4C)c2=O)cc1NC [Compound 5]
10.05	[2H]C([2H])([2H])Nc1cc(-n2ccn(-c3c4c(nn3-c3ccc(F)c(C5CC5)c3)CCN(C(=O)c3cc5cc(C6CCOCC6)ccn5c3C3(c5noc(=O)[nH]5)CC3)[C@H]4C)c2=O)ccc1P(C)(C)=O [Compound 6]
10.21	CCP(=O)(CC)c1ccc(-n2ccn(-c3c4c(nn3-c3cc(C)c(F)c(C)c3)CCN(C(=O)c3sc5cc(C6CCOCC6)ccc5c3C3(c5noc(=O)[nH]5)CC3)[C@H]4C)c2=O)cc1NC [Compound 18, 3-(1-{2-[(4S)-3-{3-[4-(diethylphosphoryl)-3-(methylamino)phenyl]-2-oxo-2,3-dihydro-1H-imidazol-1-yl}-2-(4-fluoro-3,5-dimethylphenyl)-4-methyl-2H,4H,5H,6H,7H-pyrazolo[4,3-c]pyridine-5-carbonyl]-6-(oxan-4-yl)-1-benzothiophen-3-yl}cyclopropyl)-4,5-dihydro-1,2,4-oxadiazol-5-one]
10.31	CCP(=O)(CC)c1ccc(-n2ccn(-c3c4c(nn3-c3cc(C)c(F)c(C)c3)CCN(C(=O)c3oc5cc(C6CCOCC6)ccc5c3C3(c5noc(=O)[nH]5)CC3)[C@H]4C)c2=O)cc1NC [Compound 19, 3-(1-{2-[(4S)-3-{3-[4-(diethylphosphoryl)-3-(methylamino)phenyl]-2-oxo-2,3-dihydro-1H-imidazol-1-yl}-2-(4-fluoro-3,5-dimethylphenyl)-4-methyl-2H,4H,5H,6H,7H-pyrazolo[4,3-c]pyridine-5-carbonyl]-6-(oxan-4-yl)-1-benzofuran-3-yl}cyclopropyl)-4,5-dihydro-1,2,4-oxadiazol-5-one]
10.70	CCP(=O)(CC)c1ccc(-n2ccn(-c3c4c(nn3-c3cc(C)c(F)c(C)c3)CCN(C(=O)c3cc5cc(C6CCOCC6)ccn5c3C3(c5noc(=O)[nH]5)CC3)[C@H]4C)c2=O)cc1NC [Compound 21, 3-(1-{2-[(4S)-3-{3-[4-(diethylphosphoryl)-3-(methylamino)phenyl]-2-oxo-2,3-dihydro-1H-imidazol-1-yl}-2-(4-fluoro-3,5-dimethylphenyl)-4-methyl-2H,4H,5H,6H,7H-pyrazolo[4,3-c]pyridine-5-carbonyl]-7-(oxan-4-yl)indolizin-3-yl}cyclopropyl)-4,5-dihydro-1,2,4-oxadiazol-5-one]
7.54	CCP(=O)(CC)c1ccc(-n2ccn(-c3c(-c4cc(C)c(F)c(C)c4)nn4c3C(C)N(C(=O)c3nc5cc(C6CCOCC6)ccn5c3C3(c5noc(=O)[nH]5)CC3)CC4)c2=O)cc1NC (stereo not shown) [Compound 29]
